According to EP0465913B1, “Diaminotrifluoromethylpyrimidine derivatives, process for their production and phospholipase A2 inhibitor containing them” (ISHIHARA SANGYO KAISHA, LTD., priority 1990, dated 1992):
Read-outs that look alike come from different tables or passages of the source.

Columns and labels:
[1] = Acute toxicity, intravenous injection (LD50); assay type: in vivo; details: mouse, in vivo, ddy male mice, sodium salt, mortality over one week
Description: Administration route: Intravenous injection
Using ddy male mice (body weight: 25 - 30 g), each test group consisted of 5 mice. A test compound was dissolved in the form of a sodium salt in a physiological saline or in a 5% glucose aqueous solution, and intravenously injected in an amount of 0.1 ml/10 g body weight. After the injection, the mortality rate was obtained over one week, and the median lethal dose LD50 (mg/kg) was determined.

[2] = test system: increased vascular permeability induced by acetic acid; assay: Inhibitory activity on increased vascular permeability induced by acetic acid (Mouse Whittle method, method C); assay type: in vivo, ddy male mice; details: amount of leaked dye
Description: Using ddy male mice, each test group consisted of 4 or 5 mice. A test compound was mixed with Tween 80 [polyoxyethylenesorbitan monooleate (manufactured by Nacalai Tesque K.K.)], and distilled water was added thereto to obtain a 2% Tween 80 suspension, or it was dissolved in the form of a salt in water to obtain an aqueous solution. A test compound was orally administered, and upon expiration of one hour from the administration, 0.7% acetic acid was intraperitonially injected to each mouse in an amount of 0.1 ml/10 g, and at the same time, 2% brilliant blue was intravenously injected into the tail vein in an amount of 0.1 ml/20 g. Thirty minutes after the injection of brilliant blue, the cervical vertebrae were dislocated under anesthesia by chloroform, and the abdorminal cavity was washed with 5 ml of a physiological saline. The washing solution was subjected to centrifugal separation at 3,000 rpm for 10 minutes, and the amount of the dye in the supernatant was measured at 600 nm absorbance by Microplate ELISA Reader (Model 2550EIA Reader, manufactured by Bio-Rad Laboratories). The inhibition rate of the amount of leaked dye in the group in which a test compound was administered relative to the control group was obtained by the following formula. Inhibition rate (%) = (l -(C)/(D)) x 100 [formula] • C: Amount of leaked dye in the group to which a test compound was administered. • D: Amount of leaked dye in the control group.

[3] = target: T1, Porcine pancreatic phospholipase A2 (Sus scrofa, UniProt P00592); assay: Phospholipase A2 inhibitory activity, method A (egg yolk lecithin substrate); assay type: biochemical; details: 1,000 ppm, 37°C for 30 minutes, read-out: % inhibition of PLA2 (1,000 ppm)
T1 construct: purchased Boehringer Mannheim·Yamanouchi K.K. 161454·122416
Description: To 10 mg of egg yolk lecithin (manufactured by Wako Pure Chemical Industries Ltd.), 1 ml of glycerine, 2 ml of a 50 mM Tris-HCl buffer solution (pH7.5) [Tris(hydroxymethyl)aminomethane (manufactured by Nacalai Tesque K.K.) was adjusted to pH7.5 with hydrochloric acid], 0.5 ml of a 150 mM calcium chloride solution (calcium chloride was dissolved in a 50 mM Tris-HCl buffer solution) and 0.5 ml of a 0.05% Triton-X100 (manufactured by Nacalai Tesque K.K.) solution (Triton-X100 was dissolved in a 50 mM Tris-HCl buffer solution), were added and dispersed by an agate mortar or dispersed by an ultrasonic processor (Model W-225, manufactured by Heat System-Ultrasonics, Inc.) for 5 minutes (30W) to obtain a substrate.
Porcine pancreatic phospholipase A2 [(161454·122416) manufactured by Boehringer Mannheim·Yamanouchi K.K.] was used.
To a 96 well microtitration plate (flat bottom, manufactured by Sumitomo Bakelite Medical Co., Ltd.), 40 µl of the substrate, 5 µl of a solution prepared by dissolving 10 mg of a test compound in 500 µl of dimethylsulfoxide, followed by an addition of 500 µl of a 50 mM Tris-HCl buffer solution, and 5 µl of an enzyme solution of 20 ng/ml (prepared by diluting the enzyme in a 50 mM Tris-HCl buffer solution), were added and reacted at 37°C for 30 minutes. After termination of the reaction, the released free fatty acid was quantitatively analyzed in accordance with the ACS-ACOD (acyl CoA synthetase-acyl CoA oxidase) method [a kit of NEFA C test wako (manufactured by Wako Pure Chemical Industries, Ltd.) was used]. The quantitative analysis was made by means of Microplate ELISA Reader (Model 2550EIA Reader, manufactured by Bio-Rad Laboratories) at a wavelength of 540 nm. Separately, such experiments as mentioned above, were carried out at various concentrations (2 µg/ml, 1 µg/ml and 0.5 µg/ml) of phospholipase A2 without a test compound. Then, the concentration of the free fatty acid versus the concentration of phospholipase A2 was plotted.
From this standard curve, the apparent concentration of phospholipase A2 in the case with a test compound, was read. Then, the percent inhibition of the enzyme was calculated by the following formula. Percent inhibition (%) = (l -(A)/(B)) x 100 [formula] • A: Apparent enzyme concentration when a test compound is added. • B: True enzyme concentration when a test compound is added.

[4] = test system: experimental acute pancreatitis model; assay: Effects against acute pancreatitis (Test Example 8, closed duodenal loop method, lesion scores); assay type: in vivo, Crj-CD male rats; details: sodium salt, 6 hours after ventrotomy; for inhibition in vivo at 10 mg/kg: Rattus norvegicus, 10 mg/kg single intravenous injection
How it was run: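 Closed duodenal loop pancreatitis in male Crj-CD rats (n=3) under halothane/nitrous oxide; sodium-salt compounds given i.v. into tail vein by continuous infusion or bolus, controls untreated. At 6 h, four pancreatic lesions scored 0-3; inhibition % of total and hemorrhagic scores calculated versus control.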

carrageenin edema = assay: Inhibitory activity on carrageenin edema; assay type: in vivo, Wistar male rats; details: rat, paw swelling volume three hours after carrageenin; for inhibition in vivo at 100 mg/kg: po, 3 h, dose 100 mg/kg orally, read-out: Inhibition rate (%); for Inhibition rate (%): dose 50 mg/kg orally
Description: Using Wistar male rats (body weight: about 100 g), each test group consisted of 5 rats. A test compound was mixed with Tween 80 [polyoxyethylenesorbitan monooleate (manufactured by Nacalai Tesque K.K.)], and distilled water was added thereto to obtain a 2% Tween 80 suspension, or it was dissolved in the form of a salt in water to obtain an aqueous solution. Either the suspension or the aqueous solution was orally administered in an amount of 200 mg/kg, 100 mg/kg, 50 mg/kg or 25 mg/kg. One hour later, 0.1 ml of a 1% λ-carrageenin solution dissolved in a physiological saline was injected subcutaneously to the right hind paw of each rat to cause inflamation. Three hours later, the paw volume was measured by a paw volume measuring device (manufactured by Ugobasiee K.K.). A swelling volume was obtained from the difference from the value before the inflammation. Inhibition rate (%) = (l -(F)/(E)) x 100 [formula] • F: Average swelling volume in the group to which a test compound was administered. • E: Average swelling volume in the control group.

[5] = target: T1, Porcine pancreatic phospholipase A2; assay: Phospholipase A2 inhibitory activity, method B (L-α-dipalmitoylphosphatidylcholine substrate); assay type: biochemical; details: 1,000 ppm, 37°C for 30 minutes, read-out: % inhibition of PLA2 (1,000 ppm)
How it was run: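 Substrate: L-α-dipalmitoylphosphatidylcholine/sodium cholate mixed micelles in 250 mM NaCl, 100 mM Tris-HCl pH 8.0. Enzyme (10 µg/ml stock) incubated with compound in buffer containing CaCl2 and BSA, 30 min at 37 °C. Released free fatty acid measured by ACS-ACOD at 540 nm; % inhibition derived from apparent enzyme concentration read off a standard curve.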

[6] = read-out: Inhibition rate of hemorrhagic lesions (%)
[7] = read-out: Inhibition rate of pancreatitis lesions (%)

T1 sequence (P00592 23-146): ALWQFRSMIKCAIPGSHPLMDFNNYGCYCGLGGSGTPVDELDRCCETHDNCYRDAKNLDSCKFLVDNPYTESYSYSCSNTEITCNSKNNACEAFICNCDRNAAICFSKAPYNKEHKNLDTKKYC

Compound | LD50 at 168 h ([1]; iv) | Inhibition rate (%) ([2]; dose 50 mg/kg orally) | inhibition at 1000 ppm [3] | inhibition in vivo at 10 mg/kg [4, 6] | inhibition in vivo at 10 mg/kg [4, 7] | Inhibition rate (%) ([2]; dose 20 mg/kg orally) | also measured
CCCC(=O)Nc1cc(C(F)(F)F)cnc1NS(C)(=O)=O [Compound No. 1] | 100 to 150 mg/kg | 46% | 45% | 66% | 49% | – | –
CCCCCCCCC(=O)Nc1cc(C(F)(F)F)cnc1NS(C)(=O)=O [Compound No. 4] | – | 43% | 74% | – | – | – | –
CCCCCCCCCCCC(=O)Nc1cc(C(F)(F)F)cnc1NS(C)(=O)=O [compound 5] | – | 53% | 39% | – | – | – | inhibition in vivo at 100 mg/kg (carrageenin edema): 37%
CC(C)(C)CC(=O)Nc1cc(C(F)(F)F)cnc1NS(C)(=O)=O [compound 7] | – | – | – | – | – | 53% | inhibition at 1000 ppm [5]: 50%
CS(=O)(=O)Nc1ncc(C(F)(F)F)cc1NC(=O)C1CCCCC1 [compound 8] | > 25 mg/kg | – | 81% | – | – | 48% | –
C=CC(=O)Nc1cc(C(F)(F)F)cnc1NS(C)(=O)=O [compound 9] | > 150 mg/kg | 81% | 71% | 36% | 21% | – | –
CS(=O)(=O)Nc1ncc(C(F)(F)F)cc1NC(=O)C(F)(F)F [compound 12] | > 150 mg/kg | – | 89% | – | – | – | –
CCOC(=O)Nc1cc(C(F)(F)F)cnc1NS(C)(=O)=O [compound 15] | – | 41% | 62% | 45% | 61% | – | LD50 at 168 h [1]: 100 to 150 mg/kg
CCCCOC(=O)Nc1cc(C(F)(F)F)cnc1NS(C)(=O)=O [compound 17] | – | 31% | 46% | – | – | – | LD50 at 168 h [1]: 50 to 100 mg/kg; Inhibition rate of hemorrhagic lesions (%) ([4]; 20 mg/kg continuous intravenous injection): 73%
CCS(=O)(=O)Nc1ncc(C(F)(F)F)cc1NC(=O)C(F)(F)Cl [compound 20] | – | – | 74% | – | – | 48% | –
CCOC(=O)NC(=S)Nc1cc(C(F)(F)F)cnc1NS(=O)(=O)CC [compound 21] | – | – | 62% | – | – | – | LD50 at 168 h [1]: > 75 mg/kg; Inhibition rate of hemorrhagic lesions (%) ([4]; 27 mg/kg continuous intravenous injection): 57%
CCCCCCCCS(=O)(=O)Nc1ncc(C(F)(F)F)cc1NC(=O)C(F)(F)C(F)(F)F [compound 23] | – | – | 37% | – | – | 33% | inhibition in vivo at 100 mg/kg (carrageenin edema): 30%
O=C(Nc1cc(C(F)(F)F)cnc1NS(=O)(=O)c1ccccc1)C(F)(F)F [compound 24] | > 150 mg/kg | – | 66% | – | – | – | Inhibition rate of hemorrhagic lesions (%) ([4]; 11 mg/kg continuous intravenous injection): 68%
O=C(NNc1ncc(C(F)(F)F)cc1NC(=O)C(F)(F)C(F)(F)F)c1ccccc1 [compound 39] | – | – | 41% | – | – | 53% | inhibition in vivo at 100 mg/kg (carrageenin edema): 25%
CNc1ncc(C(F)(F)F)cc1NC(=O)C(F)(F)C(F)(F)F [compound 41] | – | – | 89% | – | – | – | Inhibition rate (%) ([2]; dose 100 mg/kg orally): 85%
C=CC(=O)Nc1cc(C(F)(F)F)cnc1NS(=O)(=O)CC [compound 49] | 175 mg/kg | – | 30% | – | – | 50% | Inhibition rate of hemorrhagic lesions (%) ([4]; 42 mg/kg continuous intravenous injection): 68%
CC(=O)OCC(=O)Nc1cc(C(F)(F)F)cnc1NS(C)(=O)=O [compound 63, N-(2-methylsulfonylamino-5-trifluoromethyl-3-pyridyl)acetoxyacetamide] | > 130 mg/kg | – | – | 83% | 66% | – | Inhibition rate (%) ([2]; dose 10 mg/kg orally): 41%; inhibition at 1000 ppm [5]: 34%
CC=CC=CC(=O)Nc1cc(C(F)(F)F)cnc1NS(C)(=O)=O [compound 73] | > 80 mg/kg | – | – | 74% | 79% | – | inhibition at 1000 ppm [5]: 53%; Inhibition rate (%) (carrageenin edema): 20%
CS(=O)(=O)Nc1ncc(C(F)(F)F)cc1NC(=O)c1ccc(F)c(F)c1 [compound 77] | > 80 mg/kg | – | – | 66% | 70% | – | inhibition at 1000 ppm [5]: 61%; Inhibition rate (%) (carrageenin edema): 22%
CCCOC(=O)Nc1cc(C(F)(F)F)cnc1NS(=O)(=O)C(C)C [compound 106] | – | – | – | 96% | 97% | – | LD50 at 168 h [1]: > 20 mg/kg; inhibition at 1000 ppm [5]: 78%; Inhibition rate (%) (carrageenin edema): 19%
